Measurements as given in patent US20210179636A1, “ANTIBACTERIAL COMPOUNDS” (priority 2016, published 2021).
Values after ≈ are worked out from the molar mass of the structure shown. Read-outs that look alike come from different tables or passages of the source.

Tests used:
[1] = test system: Klebsiella pneumoniae ATCC 700603; experiment: MIC, broth microdilution (CLSI); type: cell-based; conditions: K. pneumoniae ATCC 700603, 16-20 h, mode of three experiments
[2] = test system: Escherichia coli ATCC 25922; experiment: MIC, broth microdilution (CLSI); type: cell-based; conditions: E. coli ATCC 25922, 16-20 h, mode of three experiments
[3] = test system: Staphylococcus aureus ATCC 29213; experiment: MIC, broth microdilution (CLSI); type: cell-based; conditions: S. aureus ATCC 29213, 16-20 h, mode of three experiments
[4] = test system: Mycobacterium smegmatis ATCC 19420; experiment: MIC, broth microdilution (CLSI); type: cell-based; conditions: M. smegmatis ATCC 19420, 16-20 h, mode of three experiments
[5] = test system: Enterobacter cloacae NCTC 13406; experiment: MIC, broth microdilution (CLSI); type: cell-based; conditions: E. cloacae NCTC 13406, 16-20 h, mode of three experiments
[6] = test system: Acinetobacter baumannii NCTC 13420; experiment: MIC, broth microdilution (CLSI); type: cell-based; conditions: A. baumannii NCTC 13420, 16-20 h, mode of three experiments
[7] = test system: Streptococcus pneumoniae ATCC 49619; experiment: MIC, broth microdilution (CLSI); type: cell-based; conditions: S. pneumoniae ATCC 49619, 16-20 h, mode of three experiments
[8] = test system: Haemophilus influenzae ATCC 49247; experiment: MIC, broth microdilution (CLSI); type: cell-based; conditions: H. influenzae ATCC 49247, 16-20 h, mode of three experiments
HepG2 ATCC HB-8065 = experiment: Human cell viability assay (CellTiter-Glo); type: cell-based; conditions: for IC50: Homo sapiens; for IC50 / IC50 HepG2: HepG2 cell viability, 24 h with compound, range 1-128 μg/mL
Method: Compounds are assessed for potential non-specific cytotoxic effects against a human hepatic cell line (HepG2 ATCC HB-8065). HepG2 cells are seeded at 20,000 cells/well in 96-well microtitre plates in minimal essential medium (MEM) supplemented with a final concentration of 10% FBS and 1 mM sodium pyruvate. After 24 h compound dilutions are prepared in Dulbecco's minimum essential media (DMEM) supplemented with final concentrations of 0.001% FBS, 0.3% bovine albumin and 0.02% HEPES and added to cells. Compounds are tested in two-fold serial dilutions over a final concentration range of 1-128 μg/mL in a final DMSO concentration of 1% vol/vol. Chlorpromazine is used as a positive control. Cells are incubated with compound at 37° C. and 5% CO2 for a further 24 h, after which time the CellTiter-Glo reagent (Promega) is added. Luminescence is measured on a BMG Omega plate reader. Data are analysed using GraphPad Prism software to determine the concentration of compound that inhibits cell viability by fifty percent (IC50).

[9] = test system: Pseudomonas aeruginosa ATCC 27853; experiment: MIC, broth microdilution (CLSI); type: cell-based; conditions: P. aeruginosa ATCC 27853, 16-20 h, mode of three experiments
[10] = test system: Klebsiella pneumoniae NCTC 13443; experiment: MIC, broth microdilution (CLSI); type: cell-based; conditions: NCTC13443, K. pneumoniae NCTC 13443, 16-20 h, mode of three experiments
[11] = test system: Acinetobacter baumannii ATCC 19606; experiment: MIC, broth microdilution (CLSI); type: cell-based; conditions: A. baumannii ATCC 19606, 16-20 h, mode of three experiments
E. coli MG1655 WT = experiment: MIC, broth microdilution (CLSI); type: cell-based, Escherichia coli; conditions: Escherichia coli, MG1655
E. coli ATCC BAA-2452 = experiment: MIC, broth microdilution (CLSI); type: cell-based, Escherichia coli; conditions: Escherichia coli, 16-20 h, mode of three experiments, read-out: MIC
E. coli MG1655 S83L = type: cell-based, Escherichia coli; conditions: compared to the isogenic parent strain E. coli MG1655; S83L mutation on DNA gyrase subunit GyrA
E. coli MG1655 D87G = type: cell-based, Escherichia coli; conditions: compared to the isogenic parent strain E. coli MG1655; D87G mutation on DNA gyrase subunit GyrA
E. coli NCTC 13476 = experiment: MIC, broth microdilution (CLSI); type: cell-based, Escherichia coli; conditions: Escherichia coli, NCTC13476, 16-20 h, mode of three experiments, read-out: MIC
[12] = Klebsiella pneumoniae, ATCC700603, read-out: MIC
[13] = Escherichia coli, ATCC25922, read-out: MIC
[14] = Staphylococcus aureus, ATCC29213, read-out: MIC
[15] = Enterobacter cloacae, NCTC13406, read-out: MIC
[16] = Acinetobacter baumannii, NCTC13420, read-out: MIC
[17] = Streptococcus pneumoniae, ATCC49619, read-out: MIC
[18] = Haemophilus influenzae, ATCC49247, read-out: MIC
[19] = Pseudomonas aeruginosa, ATCC27853, read-out: MIC
[20] = Acinetobacter baumannii, ATCC19606, read-out: MIC

SMILES | MIC [1, 12] | MIC [2, 13] | MIC [3, 14] | MIC [5, 15] | MIC [6, 16] | MIC [7, 17] | MIC [8, 18] | IC50 (HepG2 ATCC HB-8065) | MIC [9, 19] | MIC [1] | MIC [2] | MIC [3] | MIC [4] | MIC [5] | MIC [6] | MIC [7] | MIC [8] | IC50 HepG2 (HepG2 ATCC HB-8065) | MIC [9] | MIC [11, 20] | other results
COc1ccc2ccc(=O)n(CCN3C[C@@H]4CN(c5ccc6c(n5)NC(=O)CO6)C(=O)O[C@H]4C3)c2n1 (relative stereo) [Compound 1] | 10 to 100 µg/mL (≈ 20.3 to 203 µM) | < 1 µg/mL | < 1 µg/mL | 1 to 10 µg/mL (≈ 2.03 to 20.3 µM) | < 1 µg/mL | < 1 µg/mL | < 1 µg/mL | > 100 µg/mL | 1 to 10 µg/mL (≈ 2.03 to 20.3 µM) |  |  |  |  |  |  |  |  |  |  |  | MIC ([4]; Mycolicibacterium smegmatis, ATCC19420, read-out: MIC): < 1 µg/mL
N#Cc1cccc(-c2cccc(CN3C[C@@H]4CN(c5ccc6c(n5)NC(=O)CO6)C(=O)O[C@H]4C3)c2O)n1 (relative stereo) [Compound 3] | > 100 µg/mL | 1 to 10 µg/mL (≈ 2.01 to 20.1 µM) | < 1 µg/mL | > 100 µg/mL | 1 to 10 µg/mL (≈ 2.01 to 20.1 µM) | 1 to 10 µg/mL (≈ 2.01 to 20.1 µM) | 1 to 10 µg/mL (≈ 2.01 to 20.1 µM) | 10 to 100 µg/mL (≈ 20.1 to 201 µM) | > 100 µg/mL |  |  |  |  |  |  |  |  |  |  |  | MIC [10]: 1 to 10 µg/mL (≈ 2.01 to 20.1 µM); toxicity against HepG2 human hepatic cell line (in words) (HepG2 ATCC HB-8065; summary of Table 3): acceptable level of hepatic toxicity
O=C1COc2ccc(N3C[C@@H]4CN(CCn5c(=O)ccc6ccc(Oc7cccnc7)nc65)C[C@@H]4OC3=O)nc2N1 (relative stereo) [Compound 7, rel-1-{2-[(4aS*,7aR*-2-oxo-3-{3-oxo-2H,3H,4H-pyrido[3,2-b][1,4]oxazin-6-yl}-octahydropyrrolo[3,4-e][1,3]oxazin-6-yl]ethyl}-7-(pyridin-3-yloxy)-1,2-dihydro-1,8-naphthyridin-2-one] |  |  |  |  |  |  |  |  |  | C (a MIC of from 10 to 100 is assigned the letter C) | B (a MIC of from 1 to 10 is assigned the letter B) | A (an MIC (in μg/mL) of less or equal to 1 is assigned the letter A) | A (an MIC (in μg/mL) of less or equal to 1 is assigned the letter A) | C (a MIC of from 10 to 100 is assigned the letter C) | B (a MIC of from 1 to 10 is assigned the letter B) | A (an MIC (in μg/mL) of less or equal to 1 is assigned the letter A) | A (an MIC (in μg/mL) of less or equal to 1 is assigned the letter A) | A (an IC50 of over 100 is assigned the letter A) | C (a MIC of from 10 to 100 is assigned the letter C) |  | 
COc1ccc2c3nocc3c(=O)n(CCN3C[C@H]4CN(c5ccc6c(n5)NC(=O)CO6)C(=O)O[C@H]4C3)c2c1 (relative stereo) [Compound 9, rel-(4aS*,7aR*-6-(2-{7-methoxy-4-oxo-4H,5H-[1,2]oxazolo[3,4-c]quinolin-5-yl}ethyl)-3-{3-oxo-2H,3H,4H-pyrido[3,2-b][1,4]oxazin-6-yl}-octahydropyrrolo[3,4-e][1,3]oxazin-2-one] |  |  |  |  |  |  |  |  |  | D (a MIC of over 100 is assigned the letter D) | C (a MIC of from 10 to 100 is assigned the letter C) | A (an MIC (in μg/mL) of less or equal to 1 is assigned the letter A) | A (an MIC (in μg/mL) of less or equal to 1 is assigned the letter A) | D (a MIC of over 100 is assigned the letter D) | D (a MIC of over 100 is assigned the letter D) | B (a MIC of from 1 to 10 is assigned the letter B) | B (a MIC of from 1 to 10 is assigned the letter B) | C (an IC50 of from 1 to 10 is assigned the letter C) | D (a MIC of over 100 is assigned the letter D) |  | MIC [11]: A (an MIC (in μg/mL) of less or equal to 1 is assigned the letter A)
N#Cc1ccc2ccc(=O)n(CCN3CC4CN(c5ccc6c(n5)NC(=O)CO6)C(=O)O[C@@H]4C3)c2c1 (stereo in doubt) [Compound 12, 1-{2-[(4aR,7aS)-2-oxo-3-{3-oxo-2H,3H,4H-pyrido[3,2-b][1,4]oxazin-6-yl}-octahydropyrrolo[3,4-e][1,3]oxazin-6-yl]ethyl}-2-oxo-1,2-dihydroquinoline-7-carbonitrile] | 10 to 100 µg/mL (≈ 20.6 to 206 µM) | < 1 µg/mL | < 1 µg/mL | 1 to 10 µg/mL (≈ 2.06 to 20.6 µM) | < 1 µg/mL | < 1 µg/mL | < 1 µg/mL | > 100 µg/mL | 1 to 10 µg/mL (≈ 2.06 to 20.6 µM) |  |  |  |  |  |  |  |  |  |  | 1 to 10 µg/mL (≈ 2.06 to 20.6 µM) | MIC (E. coli MG1655 WT): < 1 µg/mL; MIC (E. coli ATCC BAA-2452): < 1 µg/mL; Fold increase in MIC against E. coli MG1655 S83L (E. coli MG1655 S83L): 1 fold; Fold increase in MIC against E. coli MG1655 D87G (E. coli MG1655 D87G): 1 fold; MIC (E. coli NCTC 13476): 1 to 10 µg/mL (≈ 2.06 to 20.6 µM)
N#Cc1ccc2ccc(=O)n(CCN3CC4CN(c5ccc6c(n5)NC(=O)CO6)C(=O)O[C@H]4C3)c2c1 (stereo in doubt) [Compound 17, 1-{2-[(4aS,7aR)-2-oxo-3-{3-oxo-2H,3H,4H-pyrido[3,2-b][1,4]oxazin-6-yl}-octahydropyrrolo[3,4-e][1,3]oxazin-6-yl]ethyl}-2-oxo-1,2-dihydroquinoline-7-carbonitrile] | 10 to 100 µg/mL (≈ 20.6 to 206 µM) | < 1 µg/mL | < 1 µg/mL | 1 to 10 µg/mL (≈ 2.06 to 20.6 µM) | < 1 µg/mL | < 1 µg/mL | < 1 µg/mL | > 100 µg/mL | 1 to 10 µg/mL (≈ 2.06 to 20.6 µM) |  |  |  |  |  |  |  |  |  |  | 1 to 10 µg/mL (≈ 2.06 to 20.6 µM) | MIC (E. coli MG1655 WT): < 1 µg/mL; MIC (E. coli ATCC BAA-2452): 1 to 10 µg/mL (≈ 2.06 to 20.6 µM); Fold increase in MIC against E. coli MG1655 S83L (E. coli MG1655 S83L): 0.5 fold; Fold increase in MIC against E. coli MG1655 D87G (E. coli MG1655 D87G): 2 fold; MIC (E. coli NCTC 13476): 1 to 10 µg/mL (≈ 2.06 to 20.6 µM)
